The test system of series [1] is Aβ. The following applies: physiological intracellular concentrations, enhanced by magnesium; cited from earlier work. The source says:
Soluble oligomers of proteins implicated in different diseases are primarily thought to be the main toxic form as opposed to the larger fibrillar assemblies. Aβ regions containing Tyr and Ser (H6DSGY10 and G25SNKG29) (Fig. 1) along with post‐translational modifications of these regions, have been implicated in misfolding, oligomerization, or fibril formation of Aβ [5, 10, 11, 16, 41]. […] In addition to ATP, the glycosaminoglycan, heparan sulfate (HS), has been previously reported to i ... || Access to the central domain of Aβ (residues 17–24) flanked by Lys‐16 and Lys‐28, known to be a critical structural element in fibrillar Aβ aggregates, might be regulated by binding of AChE and HN to their overlapping binding sites on Aβ. […] Moreover, we s ...

In another series the test system is Aβ40. The following applies: versus Aβ42; cited from earlier work. From the text:
Almost all types of cells produce amyloid beta (Aβ), a peptide well recognized for its role in the development and progression of different stages of Alzheimer's disease (AD). The Aβ peptide is ~ 4 kDa and derived from the sequential processing of the higher molecular weight amyloid precursor protein by two membrane‐bound endoproteases, β‐ and γ‐secretase. Different C‐terminal Aβ heterogeneity results from processing by γ‐secretase, where Aβ40 represents the most abundant isoform (~ 90%) as compared to Aβ42 (~ 10%). Self‐assembled Aβ40/42 peptides into amyloid fib ... || Humanin (HN) is a secreted 21‐ to 24‐amino acid mitochondrial‐derived peptide. Certain amino acid residues in HN have been identified to be involved in different functions, including binding to Aβ [55, 56]. […] HN was identified previously as a binding partner of Aβ, likely modulating its aggregation pathways and counteracting its deleterious effects. […] The specific epitopes at the binding interface between HN and Aβ40 were identified, by proteolytic epitope excision and extraction in addition to affinity–mass spectrometric data analysis, to be HN (5–15) and Aβ (17–28). […] Inhibiting the 17–28 region of Aβ reduced aggregation of the neurotoxic amyloid fibrils and related cytotoxicity in SH‐SY5Y, a human neuroblastoma cell ... || (+ 1 further places)

Series [2] in a line: ELISA, binding of biotinylated-Aβ to immobilised HS. The following applies: HS 100 nM on wells, increasing biotinylated-Aβ; single binding site model; mean ± SD of three independent experiments in triplicate; Fig. 2A. Also noted: species or system bovine. As to the method: ELISAs were carried out as we previously reported. Nunc MaxiSorp 96‐well flat bottom plate (Thermo Fisher) wells were coated with samples as indicated. The plates were incubated overnight at 4 °C on a shaker to allow binding of the samples to the plate wells. After the incubation, the wells were washed 4× with TBST, filled with 400 µL blocking buffer (110 mM KCl, 5 mM NaHCO3, 5 mM MgCl2, 1 mM EGTA, 0.1 mM CaCl2, 20 mM HEPES, 1% BSA, pH 7.4), and incubated with shaking overnight at 4 °C. The wells were then washed 4× with TBST, and 100 µL of sample at the desired concentration was added to each well and incubated with shaking overnight at 4 °C. TBST was then used to wash the wells 4× before proceeding in one of two ways: (a) biotinylated samples were analyzed by adding 100 µL streptavidin–HRP conjugate in TBST (1 : 2500 dilution) to the samples followed by incubation for 3 h at RT on a shaker, or (b) samples without biotin were analyzed by adding 100 µL TBST containing the primary antibody as per the manufacturer's recommendation, incubating for 3 h at RT on a shaker, followed by washing the wells 4× with TBST. […] The reaction was stopped with 100 µL 2 M H2SO4 after incubating at RT for 0.5–15 min, resulting in a yellow color change, measured by absorbance at 450 nm. […] Statistical analysis was determined by the […] […] Data were expressed as the mean ± SD. […]
In general terms: In an ELISA, binding on a coated surface is turned into a signal by an enzyme label.

The subject of another series is Aβ cytotoxicity. The conditions noted are these: cited from earlier work. The source says: Almost all types of cells produce amyloid beta (Aβ), a peptide well recognized for its role in the development and progression of different stages of Alzheimer's disease (AD). The Aβ peptide is ~ 4 kDa and derived from the sequential processing of the higher molecular weight amyloid precursor protein by two membrane‐bound endoproteases, β‐ and γ‐secretase. Different C‐terminal Aβ heterogeneity results from processing by γ‐secretase, where Aβ40 represents the most abundant isoform (~ 90%) as compared to Aβ42 (~ 10%). Self‐assembled Aβ40/42 peptides into amyloid fib ... || Soluble oligomers of proteins implicated in different diseases are primarily thought to be the main toxic form as opposed to the larger fibrillar assemblies. Aβ regions containing Tyr and Ser (H6DSGY10 and G25SNKG29) (Fig. 1) along with post‐translational modifications of these regions, have been implicated in misfolding, oligomerization, or fibril formation of Aβ [5, 10, 11, 16, 41]. […] Aβ proteins a ... || Acetylcholinesterase (AChE) is an enzyme known for its role in terminating acetylcholine‐mediated neurotransmission at the synaptic cleft. The majority of the cortical AChE in the Alzheimer's brain is mainly associated with the amyloid core of senile plaques. […]

The test system of a further series is Aβ42. The conditions noted are these: in brains of AD patients; cited from earlier work. From the text:
Almost all types of cells produce amyloid beta (Aβ), a peptide well recognized for its role in the development and progression of different stages of Alzheimer's disease (AD). The Aβ peptide is ~ 4 kDa and derived from the sequential processing of the higher molecular weight amyloid precursor protein by two membrane‐bound endoproteases, β‐ and γ‐secretase. Different C‐terminal Aβ heterogeneity results from processing by γ‐secretase, where Aβ40 represents the most abundant isoform (~ 90%) as compared to Aβ42 (~ 10%). Self‐assembled Aβ40/42 peptides into amyloid fib ... || Amino acid residues involved in direct interactions between HN and Aβ40 were identified previously by molecular modeling. The specific epitopes at the binding interface between HN and Aβ40 were identified, by proteolytic epitope excision and extraction in addition to affinity–mass spectrometric data analysis, to be HN (5–15) and Aβ (17–28). […] Inhibiting the 17–28 region of Aβ reduced aggregation of the neurotoxic amyloid fibrils and related cytotoxicity in SH‐SY5Y, a human neuroblastoma cell ... || Acetylcholinesterase (AChE) is an enzyme known for its role in terminating acetylcholine‐mediated neurotransmission at the synaptic cleft. The majority of the cortical AChE in the Alzheimer's brain is mainly associated with the amyloid core of senile plaques. […]

Series [3] has as its system Aβ in H1299 cell-conditioned media. Kind of series: ELISA, oligomer versus total Aβ in H1299 cell-conditioned media. It is filed as cell-based, human. The conditions noted are these: non-depleted H1299 media; Fig. 8B. The procedure: (§1) Aβ ELISAs were carried out according to previous protocols for determining the oligomeric and monomeric concentrations of Aβ and as we recently reported. Briefly, total Aβ (monomers + oligomers) was measured by two‐site binding ELISAs using the capture 6E10 monoclonal antibody and 4G8‐conjugated biotin as the detection antibody, which recognizes a distinct epitope, then quantitated using streptavidin‐HRP.
(§2) Using the same samples, oligomerized Aβ was measured by a single‐site ELISA in which antibodies targeting the same primary sequence epitope were used for both capture (4G8) and detection (4G8‐biotin). Only oligomers are detected with this approach since the 4G8‐biotin antibody cannot bind to the captured monomer because the epitope is blocked by the 4G8 capture antibody. Therefore, only oligomeric or multimeric Aβ containing additional exposed 4G8 epitopes, not engaged by the capture antibody, are reported by the streptavidin–HRP. The amount of the monomer was then estimated as the difference between the concentration of total Aβ and the concentration of the oligomer.
(§3) Conditioned media were immunodepleted (ID) according to the methods previously described and our recently published report. Briefly, specific antibodies were bound to ELISA wells overnight (1 : 1000 dilution). The wells were then blocked and washed, then 300 μL of the conditioned medium (0.5 μg·μL^−1) treated as indicated, 72 h postserum starvation, was incubated with the antibodies bound to ELISA wells for 24 h. The ID media were then carefully removed and analyzed for the presence of the target protein or peptide by ELISA. The same amount of protein (3 µL of 600 µg·mL^−1 total protein) of each sample was analyzed in the experiments. Significant depletion (95–100%) was observed upon using each of the antibodies employed in this study.
(§4) Both epitopes recognized by the 6E10 and 4G8 antibodies have been previously shown to be exposed in Aβ aggregates. […] To determine the effect of ID of AChE or HN on this ratio in the absence or presence of added ATP, 0.2 × 10^5 cells per well were seeded in 96‐well plates in 10% FBS‐supplemented media. The next day, the cells were incubated in serum‐free medium for 72 h, then ID of AChE or HN as described in Materials and methods. The antibodies 6E10 or 4G8 were bound (1 : 1000 dilution) to ELISA wells (Fig. 8). The wells were blocked, and then incubated with 300 μL of the ID medium (0.5 μg·μL^−1). Biotin‐4G8 was then added and the signal processed as described in Materials and methods section. Fold change relative to controls using anti‐6E10 or anti‐4G8 antibodies incubated with 300 μL of the medium not incubated with cells was calculated.
(§5) Cells (0.2 × 10^5) were grown in 10% FBS‐supplemented media for 24 h. The cells were then incubated in serum‐free medium for 72 h without or with ATP and the media collected and ID from either HN or AChE as described in Materials and methods section. The antibodies 6E10 or 4G8 were bound (1 : 1000 dilution) to ELISA wells. The wells were blocked, and then incubated with 300 μL of the control and ID medium (0.5 μg·μL^−1). Biotin‐4G8 was then added and the signal processed as described in Materials and methods section. Fold change relative to controls using anti‐6E10 and anti‐4G8 antibodies and 300 μL of the medium not incubated with cells was calculated. Data were processed using the […] 8.4.3 software. The graphs summarize the results expressed as means ± SD of three separate experiments, each performed in triplicate. […]

Series [4] has as its system human lung adenocarcinoma xenografts. The conditions noted are these: direct injection into xenografts; cited from earlier work. The source says:
A rapidly growing body of evidence has recently steadily emerged showing that AD patients might have a reduced risk and some protection against certain cancers. […] Experimental evi ...

Series [5] deals with Aβ in A549 cell-conditioned media. Kind of series: ELISA, oligomer versus total Aβ in A549 cell-conditioned media. Format: cell-based, human. The following applies: non-depleted A549 media; Fig. 8A. As to the method: as §1, §2, §3, §4, §5
Series [6] has as its system Aβ. The conditions noted are these: cited from earlier work.

With `Nc1ncnc2c1ncn2[C@@H]1O[C@H](COP(=O)(O)OP(=O)(O)O)[C@@H](O)[C@H]1O` [ADP], the “effect on misfolding of Aβ” value in the series with Aβ [1] is “reduced misfolding of Aβ”.

Take Aβ40: the “aggregation kinetics of Aβ40” value with Aβ40 was “lower aggregation kinetics”. Further, the “binding affinity of Aβ for HS” value in [2] is “comparable affinities”. In addition, the “toxicity relative to Aβ42” value in the series with Aβ cytotoxicity was “lower toxicity”.

Turning to Aβ42, the “aggregation kinetics of Aβ42” value with Aβ42 is listed as “faster aggregation kinetics”. Moreover, the “binding affinity of Aβ for HS” value in series [2] is given as “comparable affinities”.

Take amyloid beta [Aβ]: the “oligomer relative to total Aβ” value in [3] is recorded as ~ 48%; in series [5] it was ~ 63%. The tumor growth result in series [4] was “suppress tumor growth in mice”.

For the compound biotinylated‐HN, the “binding of biotinylated-HN to Aβ versus HN” value with Aβ [6] is “indistinguishable”.
